Source: paper PMC8200971, “Design, Synthesis, Biological Evaluation and Silico Prediction of Novel Sinomenine Derivatives” (Molecules, 2021)

How the values were obtained:
[1] = tested on: MCF-7 (human breast cancer cell lines); experiment: CCK8 cytotoxicity assay; assay type: cell-based; details: CCK8, 60 h, mean ± SD of three independent experiments; read-out: IC50 MCF-7
Method: (§1) Cytotoxicity screens were performed to assess the in vitro anticancer activity of the synthesized sinomenine derivatives 6a–6l on the various cancer cell lines MCF-7, Hela, SW480, and A549, as well as on Hek293 as a normal cell line, at doses of 2.5 and 25 μM. The obtained inhibition ratios data were used to construct a heat map (Figure 3, Tables S1 and S2) in order to select compounds that exert cancer cell line-specific cytotoxicity. Then, the IC50 values of the promising compound were determined. Cisplatin was used as a reference standard. The antiproliferative activity was based on the evaluation of the percent viability using the CCK8 assay, which is a rapid and sensitive method for determining the number of viable cells in culture. In the presence of electronic coupling reagents, WST-8 can be reduced by a dehydrogenase in the mitochondria to produce a highly water-soluble orange-yellow formazan product. Its color is proportional to the proliferation of the number of viable cells and is related to cytotoxicity. Using a microplate reader to measure the OD value can indirectly reflect the number of living cells at 450 nm wavelength.
(§2) To understand structure–function relationships, these selected compounds were subjected to subsequent analyses. All six compounds (6a and 6c–6g) were further examined to determine their IC50 concentrations on the previously mentioned cell lines, and their efficacy was compared to the reference drug cisplatin. For this, six compounds and cisplatin were evaluated on Hela, MCF-7, SW480, and A549, and on noncancerous Hek293 cell lines at various concentrations for 60 h. IC50 values were calculated (Table 2).
(§3) The MCF-7 (human breast cancer cell lines), Hela (human cervical cancer cell lines), SW480 (human colon adenocarcinoma cell lines), A549 (human lung adenocarcinoma cell lines) and nontoxic normal cells Hek293 (human embryonic kidney cell lines) cells were used to measure the cytotoxicity of the 6a–6l. They were obtained from the Beijing Normal University (Beijing, China). The test cell lines were cultured in DMEM, IMDM, F12 and DMEM nutrient medium containing 10% heat-inactivated fetal bovine serum, […] and 100 units/mL penicillin in a humified, 5% (v/v) CO2 atmosphere at 37 °C.
(§4) Cell viability was estimated using the CCK8 assay. Tumor cells ([…]) viz. MCF-7, Hela, SW480, A549 and nontoxic normal cells Hek293 were seeded in medium containing Corning® 96-well tissue culture plates at confluences of […], respectively, in Incucyte ZOOM. Fresh medium (100 μL) containing different concentrations of the test sample was added after 12 h of seeding. The microtiter plates were incubated at 37 °C in a humidified incubator with 5% CO2 for 60 h. Triplicates from each concentration were used. Negative control cells were incubated without sample and cisplatin as a positive control. At the end of treatment, the numbers of viable cells were determined by the CCK8 test. In brief, the media was removed from the 96 well plates and replaced with 100 μL of fresh culture medium with 10% CCK8 solution added to each well including the untreated controls. The 96 well plates were then incubated at 37 °C and 5% CO2 for 1–4 h. Then, the absorbance was measured at 450 nm using a BMG LABTECH®-POLAR star Omega microplate reader (Ortenberg, Germany) to determine the number of viable cells, and the percentage of viability was calculated as ((ODt- ODb/ODc- ODb)) × 100%, where ODt is the mean optical density of wells treated with the tested sample, ODc is the mean optical density of wells treated with DMSO and ODb is the mean optical density of PBS wells without cells. The relation between surviving cells and drug concentrations were plotted to get the survival curve of each tumor cell line after treatment with the specified compound. […]

[2] = tested on: A549 (human lung adenocarcinoma cell lines); experiment: CCK8 cytotoxicity assay; assay type: cell-based; details: CCK8, 60 h, mean ± SD of three independent experiments; read-out: IC50 A549
Method: as §1, §2, §3, §4

[3] = tested on: Hela (human cervical cancer cell lines); experiment: CCK8 cytotoxicity assay; assay type: cell-based; details: CCK8, 60 h, mean ± SD of three independent experiments; read-out: IC50 Hela
Method: as §1, §2, §3, §4

[4] = tested on: SW480 (human colon adenocarcinoma cell lines); experiment: CCK8 cytotoxicity assay; assay type: cell-based; details: CCK8, 60 h, mean ± SD of three independent experiments; read-out: IC50 SW480
Method: as §1, §2, §3, §4

[5] = tested on: Hek293 (human embryonic kidney cell lines); experiment: CCK8 cytotoxicity assay, normal cells; assay type: cell-based; details: normal cell line, CCK8, 60 h, mean ± SD of three independent experiments; read-out: IC50 Hek293
Method: as §1, §2, §3, §4

SMILES | melting point [°C] | further results
COC1=C[C@@H]2[C@@H]3Cc4c(CN5CCCCC5)cc(OC)c(OC(=O)Cc5ccc(Cl)cc5)c4[C@]2(CCN3C)CC1=O [5a, (4bR,8aS,9S)-3,7-dimethoxy-11-methyl-6-oxo-1-(piperidin-1-ylmethyl)-6,8a,9,10-tetrahydro-5H-9,4b-(epiminoethano)phenanthren-4-yl 2-(4-chlorophenyl)acetate] | 105 to 107 | 
COC1=C[C@@H]2[C@@H]3Cc4c(CN5CCCCC5)cc(OC)c(OC(=O)Cc5ccccc5Cl)c4[C@]2(CCN3C)CC1=O [5f, (4bR,8aS,9S)-3,7-dimethoxy-11-methyl-6-oxo-1-(piperidin-1-ylmethyl)-6,8a,9,10-tetrahydro-5H-9,4b-(epiminoethano)phenanthren-4-yl 2-(2-chlorophenyl)acetate] | 188 to 190 | 
COC1=C[C@@H]2[C@@H]3Cc4c(CN5CCCCC5)cc(OC)c(OC(=O)Cc5ccc(OC)cc5)c4[C@]2(CCN3C)CC1=O [5h, (4bR,8aS,9S)-3,7-dimethoxy-11-methyl-6-oxo-1-(piperidin-1-ylmethyl)-6,8a,9,10-tetrahydro-5H-9,4b-(epiminoethano)phenanthren-4-yl 2-(4-methoxyphenyl)acetate] | 121 to 122 | 
N.N.[Cl][Pt][Cl] [Cisplatin, reference compound] |  | IC50 [1]: 3.45 ± 0.82 µM; IC50 [2]: 14.3 ± 0.7 µM; IC50 [3]: 4.57 ± 0.43 µM; IC50 [4]: 1.98 ± 0.15 µM; IC50 [5]: 3.19 ± 0.6 µM

The next lines start with results.

melting point [°C] | SMILES | further results
192 to 194 | COC1=C[C@@H]2[C@@H]3Cc4c(CN5CCCCC5)cc(OC)c(OC(=O)Cc5ccccc5)c4[C@]2(CCN3C)CC1=O [5b, (4bR,8aS,9S)-3,7-dimethoxy-11-methyl-6-oxo-1-(piperidin-1-ylmethyl)-6,8a,9,10-tetrahydro-5H-9,4b-(epiminoethano)phenanthren-4-yl 2-phenylacetate] | 
151 to 154 | COC1=C[C@@H]2[C@@H]3Cc4c(CN5CCCCC5)cc(OC)c(OC(=O)Cc5ccc(OC)c(OC)c5)c4[C@]2(CCN3C)CC1=O [5c, (4bR,8aS,9S)-3,7-dimethoxy-11-methyl-6-oxo-1-(piperidin-1-ylmethyl)-6,8a,9,10-tetrahydro-5H-9,4b-(epiminoethano)phenanthren-4-yl 2-(3,4-dimethoxyphenyl)acetate] | 
177 to 178 | COC1=C[C@@H]2[C@@H]3Cc4c(CN5CCCCC5)cc(OC)c(OC(=O)Cc5ccccc5C)c4[C@]2(CCN3C)CC1=O [5d, (4bR,8aS,9S)-3,7-dimethoxy-11-methyl-6-oxo-1-(piperidin-1-ylmethyl)-6,8a,9,10-tetrahydro-5H-9,4b-(epiminoethano)phenanthren-4-yl 2-(o-tolyl)acetate] | 
181 to 185 | COC1=C[C@@H]2[C@@H]3Cc4c(CN5CCCCC5)cc(OC)c(OC(=O)CCc5ccccc5)c4[C@]2(CCN3C)CC1=O [5e, (4bR,8aS,9S)-3,7-dimethoxy-11-methyl-6-oxo-1-(piperidin-1-ylmethyl)-6,8a,9,10-tetrahydro-5H-9,4b-(epiminoethano)phenanthren-4-yl 3-phenylpropanoate] | 
128 to 130 | COC1=C[C@@H]2[C@@H]3Cc4c(CN5CCCCC5)cc(OC)c(OC(=O)Cc5ccc(F)cc5)c4[C@]2(CCN3C)CC1=O [5k, (4bR,8aS,9S)-3,7-dimethoxy-11-methyl-6-oxo-1-(piperidin-1-ylmethyl)-6,8a,9,10-tetrahydro-5H-9,4b-(epiminoethano)phenanthren-4-yl 2-(4-fluorophenyl)acetate] | 
